# Assay results published in patent publication US11408891B2, “Imaging agent” (University of Lancaster, priority 2017, dated 2022).
# Like-named read-outs stand apart in the source and are kept apart here.
# Tests used:
# [1] = test system: peroxisomes in HaCaT cells
# Experimental: FIG. 1: Chemical structure of a compound of the invention (and the compound referred to in the figures for example as the platinum complex) and confocal micrograph of HaCaT cells after 10 minutes exposure to 25 μg/ml of the platinum complex (ex 405 nm, emission 505-740 nm). […] A compound of the invention may be prepared as a salt, for example as a sodium salt as described herein, and is used as an imaging agent in a buffer solution. HaCaT cells were grown on glass coverslips under the same conditions as in described in Steel 2015 referred to herein. […] The coverslips were then washed in PBS and mounted by inversion on a glass slide. Images were captured on a Zeiss LSM 850 Meta laser scanning confocal microscope.
# [2] = test system: HaCaT cells; details: HaCaT cells with and without microtubule-depolymerising levels of nocodazole (FIG. 2)
# Experimental: HaCaT cells were grown on glass coverslips under the same conditions as in described in Steel 2015 referred to herein. […] The coverslips were then washed in PBS and mounted by inversion on a glass slide. Images were captured on a Zeiss LSM 850 Meta laser scanning confocal microscope.
# [3] = test system: peroxisomes (pDsRed2-Peroxi Vector labelled compartments); details: photo-bleaching at 514 nm, complex excited at 405 nm (FIG. 4)
# Experimental: FIG. 4: Co-localisation experiment with Clontech pDsRed2-Peroxi Vector. […] Fluorescence micrographs of co-localisation experiment i) Excited at 405 nm pre-photo-bleaching; ii) excited at 514 nm pre photo-bleaching iii) excited at 514 nm post photo-bleaching; iv) Excited at 405 nm post photo-bleaching. HaCaT cells were grown on glass coverslips under the same conditions as in described in Steel 2015 referred to herein. […] The coverslips were then washed in PBS and mounted by inversion on a glass slide. Images were captured on a Zeiss LSM 850 Meta laser scanning confocal microscope.
# [4] = PBS containing compound at 125 μg/ml, 10 minutes at 4° C.
substance,measurement,setting,value
PtMe3bpy-S-glutathione [compound A],staining pattern,"[1]; 10 minutes exposure to 25 μg/ml, ex 405 nm, emission 505-740 nm (FIG. 1)",punctate pattern
same,staining pattern,[1]; [4],"punctate staining pattern, characteristic of peroxisomes"
same,uptake by cells,[1]; [4],readily taken up by cells
same,motility of the stained compartments,[2],microtubule-dependent motility
same,co-localisation with peroxisome marker,[3],platinum complex emission was retained in the same cellular compartments
